From patent publication US20240116951A1, “HETEROCYCLIC COMPOUNDS AND USES THEREOF” (Kumquat Biosciences Inc., priority 2022, published 2024)

Assays:
Assay type in all cases: binding
KRAS G12D = target: T1, KRAS G12D (Homo sapiens, UniProt P01116, G12D); assay: HTRF assay of K-Ras G12D interaction with SOS1 (PPI-HTRF); settings: HTRF, 5 nM KRAS G12D; read-out: PPI-HTRF-5 nM KRAS G12D
T1 construct: made in house; host or cells: E. coli, e.g. BL21 (DE3)
Procedure, shortened: (§1)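 Equilibrium binding between GST-K-Ras and His-tagged human SOS1 is measured by FRET from a europium anti-GST donor to an XL665 anti-His acceptor. Compounds are run in duplicate at 10, 2.5, 0.63, 0.16, 0.04 and 0.01 μM, and IC50 is calculated from the 665/620 nm ratio.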

KRAS G12S = target: T2, KRAS G12S (Homo sapiens, UniProt P01116, G12S); assay: HTRF assay of K-Ras G12S interaction with SOS1 (PPI-HTRF); settings: 5 nM KRAS G12S, read-out: PPI-HTRF-5 nM KRAS G12S
T2 construct: made in house; host or cells: E. coli, e.g. BL21 (DE3)
Procedure, shortened: as §1

KRAS WT = target: T3, KRAS WT (Homo sapiens, UniProt P01116); assay: HTRF assay of wildtype K-Ras interaction with SOS1 (PPI-HTRF); settings: HTRF, 5 nM KRAS WT; read-out: PPI-HTRF-5 nM KRAS WT
T3 construct: made in house; host or cells: E. coli, e.g. BL21 (DE3)
Procedure, shortened: as §1

Measured: IC50

T1 sequence (P01116 1-188 isoform P01116-2 G12D): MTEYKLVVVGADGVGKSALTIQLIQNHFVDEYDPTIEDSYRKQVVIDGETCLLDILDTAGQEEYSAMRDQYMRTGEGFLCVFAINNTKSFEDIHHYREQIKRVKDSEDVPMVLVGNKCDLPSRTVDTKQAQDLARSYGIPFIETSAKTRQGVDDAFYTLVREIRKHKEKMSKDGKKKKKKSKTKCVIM
T2 sequence (P01116 1-188 isoform P01116-2 G12S): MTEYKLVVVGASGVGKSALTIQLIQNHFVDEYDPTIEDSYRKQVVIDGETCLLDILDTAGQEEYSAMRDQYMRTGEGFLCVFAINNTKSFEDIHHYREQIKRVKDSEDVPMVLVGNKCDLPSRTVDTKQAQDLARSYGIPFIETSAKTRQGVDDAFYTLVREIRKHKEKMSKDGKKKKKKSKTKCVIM
T3 sequence (P01116 1-188 isoform P01116-2): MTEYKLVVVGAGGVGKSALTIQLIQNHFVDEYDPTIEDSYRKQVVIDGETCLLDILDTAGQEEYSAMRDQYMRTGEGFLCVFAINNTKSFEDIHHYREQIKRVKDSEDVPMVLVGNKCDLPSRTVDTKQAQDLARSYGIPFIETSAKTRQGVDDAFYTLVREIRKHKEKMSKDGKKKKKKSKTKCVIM

N#Cc1c(N)sc2c(F)ccc(-c3c(Cl)cc4c(N5CCC6(CCN6C(=O)n6cnc(C(F)F)n6)C5)nc(OC[C@@]56CCCN5C[C@H](F)C6)nc4c3F)c12 (stereo partly drawn) [Compound 215, 2-amino-4-(6-chloro-4-(1-(3-(difluoromethyl)-1H-1,2,4-triazole-1-carbonyl)-1,6-diazaspiro[3.4]octan-6-yl)-8-fluoro-2-(((2R,7aS)-2-fluorotetrahydro-1H-pyrrolizin-7a(5H)-yl)methoxy)quinazolin-7-yl)-7-fluorobenzo[b]thiophene-3-carbonitrile]
< 5 µM: all assays above

C[C@H]1CN(C(=O)n2cncn2)[C@]12CCN(c1nc(OC[C@@]34CCCN3C[C@H](F)C4)nc3c(F)c(-c4ccc(F)c5sc(N)c(C#N)c45)c(Cl)cc13)C2 [Compound 324, 2-amino-4-(6-chloro-8-fluoro-2-(((2R,7aS)-2-fluorotetrahydro-1H-pyrrolizin-7a(5H)-yl)methoxy)-4-((3S,4R)-3-methyl-1-(1H-1,2,4-triazole-1-carbonyl)-1,6-diazaspiro[3.4]octan-6-yl)quinazolin-7-yl)-7-fluorobenzo[b]thiophene-3-carbonitrile]
< 5 µM: all assays above

N#CCc1ncn(C(=O)N2CCC23CCN(c2nc(OC[C@@]45CCCN4C[C@H](F)C5)nc4c(F)c(-c5ccc(F)c6sc(N)c(C#N)c56)c(Cl)cc24)C3)n1 (stereo partly drawn) [Compound 320, 2-amino-4-(6-chloro-4-(1-(3-(cyanomethyl)-1H-1,2,4-triazole-1-carbonyl)-1,6-diazaspiro[3.4]octan-6-yl)-8-fluoro-2-(((2R,7aS)-2-fluorotetrahydro-1H-pyrrolizin-7a(5H)-yl)methoxy)quinazolin-7-yl)-7-fluorobenzo[b]thiophene-3-carbonitrile]
< 5 µM: all assays above

C[C@H](Oc1nc(N2CCC3(CCN3C(=O)[C@@H]3C[C@H]3C#N)C2)c2cc(Cl)c(-c3ccc(F)c4sc(N)c(C#N)c34)c(F)c2n1)[C@@H]1CCCN1C (stereo partly drawn) [Compound 206, 2-amino-4-(6-chloro-4-(1-((1R,2R)-2-cyanocyclopropane-1-carbonyl)-1,6-diazaspiro[3.4]octan-6-yl)-8-fluoro-2-((S)-1-((S)-1-methylpyrrolidin-2-yl)ethoxy)quinazolin-7-yl)-7-fluorobenzo[b]thiophene-3-carbonitrile]
< 5 µM: all assays above

N#Cc1c(N)sc2c(F)ccc(-c3c(Cl)cc4c(N5CCC6(C5)N(C(=O)n5cncn5)CC6(F)F)nc(OC[C@@]56CCCN5C[C@H](F)C6)nc4c3F)c12 (stereo partly drawn) [Compound 283, 2-amino-4-(6-chloro-4-(3,3-difluoro-1-(1H-1,2,4-triazole-1-carbonyl)-1,6-diazaspiro[3.4]octan-6-yl)-8-fluoro-2-(((2R,7aS)-2-fluorotetrahydro-1H-pyrrolizin-7a(5H)-yl)methoxy)quinazolin-7-yl)-7-fluorobenzo[b]thiophene-3-carbonitrile]
< 5 µM: all assays above

Nc1nc2c(-c3c(Cl)cc4c(N5CC6(CNCCN6)C5)nc(OC[C@@]56CCCN5C[C@H](F)C6)nc4c3F)ccc(F)c2s1 [Compound 205, 4-(6-chloro-8-fluoro-2-(((2R,7aS)-2-fluorotetrahydro-1H-pyrrolizin-7a(5H)-yl)methoxy)-4-(2,5,8-triazaspiro[3.5]nonan-2-yl)quinazolin-7-yl)-7-fluorobenzo[d]thiazol-2-amine]
< 5 µM: all assays above

N#Cc1c(N)sc2c(F)ccc(-c3c(Cl)cc4c(N5CC6(CCN6C(=O)n6cncn6)C5)nc(OC[C@@]56CCCN5C[C@H](F)C6)nc4c3F)c12 [Compound 238, 4-(4-(1-(1H-1,2,4-triazole-1-carbonyl)-1,6-diazaspiro[3.3]heptan-6-yl)-6-chloro-8-fluoro-2-(((2R,7aS)-2-fluorotetrahydro-1H-pyrrolizin-7a(5H)-yl)methoxy)quinazolin-7-yl)-2-amino-7-fluorobenzo[b]thiophene-3-carbonitrile]
< 5 µM: all assays above

N#Cc1c(N)sc2c(F)ccc(-c3c(Cl)cc4c(N5CCC6(CCCN6C(=O)C6CC6(F)F)CC5)nc(OC[C@@]56CCCN5C[C@H](F)C6)nc4c3F)c12 (stereo partly drawn) [Compound 341, 2-amino-4-(6-chloro-4-(1-(2,2-difluorocyclopropane-1-carbonyl)-1,8-diazaspiro[4.5]decan-8-yl)-8-fluoro-2-(((2R,7aS)-2-fluorotetrahydro-1H-pyrrolizin-7a(5H)-yl)methoxy)quinazolin-7-yl)-7-fluorobenzo[b]thiophene-3-carbonitrile]
< 5 µM: all assays above

C=CC(=O)N1CC[C@@]12CCN(c1nc(OC[C@@]34CCCN3C[C@H](F)C4)nc3c(F)c(-c4ccc(F)c5sc(N)c(C#N)c45)c(Cl)cc13)C2 [Compound 291]
< 5 µM: all assays above

N#Cc1ncn(C(=O)N2CC[C@@]23CCN(c2nc(OC[C@@]45CCCN4C[C@H](F)C5)nc4c(F)c(-c5ccc(F)c6sc(N)c(C#N)c56)c(Cl)cc24)C3)n1 [Compound 321, 1-((4R)-6-(7-(2-amino-3-cyano-7-fluorobenzo[b]thiophen-4-yl)-6-chloro-8-fluoro-2-(((2R,7aS)-2-fluorotetrahydro-1H-pyrrolizin-7a(5H)-yl)methoxy)quinazolin-4-yl)-1,6-diazaspiro[3.4]octane-1-carbonyl)-1H-1,2,4-triazole-3-carbonitrile]
< 5 µM: all assays above

Cc1cn(C(=O)N2CCC23CCN(c2nc(OC[C@@]45CCCN4C[C@H](F)C5)nc4c(F)c(-c5ccc(F)c6sc(N)c(C#N)c56)c(Cl)cc24)C3)nn1 (stereo partly drawn) [Compound 336, 2-amino-4-(6-chloro-8-fluoro-2-(((2R,7aS)-2-fluorotetrahydro-1H-pyrrolizin-7a(5H)-yl)methoxy)-4-(1-(4-methyl-1H-1,2,3-triazole-1-carbonyl)-1,6-diazaspiro[3.4]octan-6-yl)quinazolin-7-yl)-7-fluorobenzo[b]thiophene-3-carbonitrile]
< 5 µM: all assays above

CC(C)c1ncn(C(=O)N2CCC23CCN(c2nc(OC[C@@]45CCCN4C[C@H](F)C5)nc4c(F)c(-c5ccc(F)c6sc(N)c(C#N)c56)c(Cl)cc24)C3)n1 (stereo partly drawn) [Compound 304, 2-amino-4-(6-chloro-8-fluoro-2-(((2R,7aS)-2-fluorotetrahydro-1H-pyrrolizin-7a(5H)-yl)methoxy)-4-(1-(3-isopropyl-1H-1,2,4-triazole-1-carbonyl)-1,6-diazaspiro[3.4]octan-6-yl)quinazolin-7-yl)-7-fluorobenzo[b]thiophene-3-carbonitrile]
< 5 µM: all assays above

CN1CCC[C@H]1COc1nc(N2CCC3(CCN3C(=O)n3cncn3)C2)c2cc(Cl)c(-c3ccc(F)c4sc(N)c(C#N)c34)c(F)c2n1 (stereo partly drawn) [Compound 319, 4-(4-(1-(1H-1,2,4-triazole-1-carbonyl)-1,6-diazaspiro[3.4]octan-6-yl)-6-chloro-8-fluoro-2-(((S)-1-methylpyrrolidin-2-yl)methoxy)quinazolin-7-yl)-2-amino-7-fluorobenzo[b]thiophene-3-carbonitrile]
< 5 µM: all assays above

N#Cc1c(N)sc2c(F)ccc(-c3c(Cl)cc4c(N5CCC6(CCN6C(=O)n6cnnn6)C5)nc(OC[C@@]56CCCN5C[C@H](F)C6)nc4c3F)c12 (stereo partly drawn) [Compound 293, 4-(4-(1-(1H-tetrazole-1-carbonyl)-1,6-diazaspiro[3.4]octan-6-yl)-6-chloro-8-fluoro-2-(((2R,7aS)-2-fluorotetrahydro-1H-pyrrolizin-7a(5H)-yl)methoxy)quinazolin-7-yl)-2-amino-7-fluorobenzo[b]thiophene-3-carbonitrile]
< 5 µM: all assays above

N#Cc1c(N)sc2c(F)ccc(-c3c(Cl)cc4c(N5CCC6(CCN6C(=O)n6cnc(C7CC7)n6)C5)nc(OC[C@@]56CCCN5C[C@H](F)C6)nc4c3F)c12 (stereo partly drawn) [Compound 308, 2-amino-4-(6-chloro-4-(1-(3-cyclopropyl-1H-1,2,4-triazole-1-carbonyl)-1,6-diazaspiro[3.4]octan-6-yl)-8-fluoro-2-(((2R,7aS)-2-fluorotetrahydro-1H-pyrrolizin-7a(5H)-yl)methoxy)quinazolin-7-yl)-7-fluorobenzo[b]thiophene-3-carbonitrile]
< 5 µM: all assays above
